According to PubChem BioAssay AID2060511 (Molecular Pharmacology Branch, DTP, NCI, 2025):

System: 422866-222-R5-J1-PDC spheroids with HUVEC/MSC, viability
Test: Anticancer human tumor 422866-222-R5-J1-PDC patient-derived pancreatic adenocarcinoma cell line growth inhibition [GQUAD]
Conditions: for IC50: curve of first compound; for viability, T/C: stronger effect = lower value
Procedure, shortened: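 Multi-cell-type spheroids of tumor cells with HUVEC and mesenchymal stem cells, treated with drug combinations. Concentrations descend in half-log steps from near clinical Cmax, or from 10 microM where Cmax is unknown; viability read-out.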

[1] = second compound 0.0316 µM, first compound 0.0316 µM
[2] = second compound 0.0316 µM, first compound 0.1 µM
[3] = second compound 0.0316 µM, first compound 0.316 µM
[4] = second compound 0.0316 µM, first compound 1 µM
[5] = second compound 0.0316 µM, first compound 3.16 µM
[6] = second compound 0.0316 µM, first compound 10 µM
[7] = second compound 0.1 µM, first compound 0.0316 µM
[8] = second compound 0.1 µM, first compound 0.1 µM
[9] = second compound 0.1 µM, first compound 0.316 µM
[10] = second compound 0.1 µM, first compound 1 µM
[11] = second compound 0.1 µM, first compound 3.16 µM
[12] = second compound 0.1 µM, first compound 10 µM
[13] = second compound 0.316 µM, first compound 0.0316 µM
[14] = second compound 0.316 µM, first compound 0.1 µM
[15] = second compound 0.316 µM, first compound 0.316 µM
[16] = second compound 0.316 µM, first compound 1 µM
[17] = second compound 0.316 µM, first compound 3.16 µM
[18] = second compound 0.316 µM, first compound 10 µM
[19] = second compound 1 µM, first compound 0.0316 µM
[20] = second compound 1 µM, first compound 0.1 µM
[21] = second compound 1 µM, first compound 0.316 µM
[22] = second compound 1 µM, first compound 1 µM
[23] = second compound 1 µM, first compound 3.16 µM
[24] = second compound 1 µM, first compound 10 µM
[25] = second compound 3.16 µM, first compound 0.0316 µM
[26] = second compound 3.16 µM, first compound 0.1 µM
[27] = second compound 3.16 µM, first compound 0.316 µM
[28] = second compound 3.16 µM, first compound 1 µM
[29] = second compound 3.16 µM, first compound 3.16 µM
[30] = second compound 3.16 µM, first compound 10 µM
[31] = second compound 10 µM, first compound 0.0316 µM
[32] = second compound 10 µM, first compound 0.1 µM
[33] = second compound 10 µM, first compound 0.316 µM
[34] = second compound 10 µM, first compound 1 µM
[35] = second compound 10 µM, first compound 3.16 µM
[36] = second compound 10 µM, first compound 10 µM
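Further: spheroids exposed to compounds for seven days before reading.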
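Wherever viability, T/C is given: percent viability relative to DMSO vehicle control taken as 100%.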

O=c1[nH]cc(F)c(=O)[nH]1 + Cc1cnc(CNC(=O)c2c(=O)c3ccc(N4CCCN(C)CC4)nc3n3c2sc2ccccc23)cn1
IC50 (second compound 0.0316 µM): > 10 µM
IC50 (second compound 0.1 µM): > 10 µM
IC50 (second compound 0.316 µM): > 10 µM
IC50 (second compound 1 µM): > 10 µM
IC50 (second compound 3.16 µM): > 10 µM
IC50 (second compound 10 µM): > 10 µM
viability, T/C [1]: 90%
viability, T/C [2]: 93.1%
viability, T/C [3]: 88.2%
viability, T/C [4]: 88.8%
viability, T/C [5]: 78%
viability, T/C [6]: 78.7%
viability, T/C [7]: 94.5%
viability, T/C [8]: 79.6%
viability, T/C [9]: 89.4%
viability, T/C [10]: 95.5%
viability, T/C [11]: 85.8%
viability, T/C [12]: 87.5%
viability, T/C [13]: 85.6%
viability, T/C [14]: 69.4%
viability, T/C [15]: 96.1%
viability, T/C [16]: 83.3%
viability, T/C [17]: 89.7%
viability, T/C [18]: 92.2%
viability, T/C [19]: 88.6%
viability, T/C [20]: 85.8%
viability, T/C [21]: 85.2%
viability, T/C [22]: 104%
viability, T/C [23]: 105%
viability, T/C [24]: 104%
viability, T/C [25]: 83.1%
viability, T/C [26]: 85.2%
viability, T/C [27]: 93.5%
viability, T/C [28]: 83.3%
viability, T/C [29]: 99.8%
viability, T/C [30]: 82.8%
viability, T/C [31]: 81.8%
viability, T/C [32]: 78.4%
viability, T/C [33]: 85.7%
viability, T/C [34]: 80.6%
viability, T/C [35]: 87.5%
viability, T/C [36]: 76.4%

O=C(c1cc(Cc2n[nH]c(=O)c3ccccc23)ccc1F)N1CCN(C(=O)C2CC2)CC1 + CN(C)c1ccc(Nc2c3ccc(NC(=O)CCN4CCCC4)cc3nc3cc(NC(=O)CCN4CCCC4)ccc23)cc1
IC50 (second compound 0.0316 µM): > 10 µM
IC50 (second compound 0.1 µM): > 10 µM
IC50 (second compound 0.316 µM): > 10 µM
IC50 (second compound 1 µM): > 10 µM
IC50 (second compound 3.16 µM): > 10 µM
IC50 (second compound 10 µM): > 10 µM
viability, T/C [1]: 108%
viability, T/C [2]: 95.8%
viability, T/C [3]: 96.3%
viability, T/C [4]: 99.7%
viability, T/C [5]: 75.7%
viability, T/C [6]: 70.1%
viability, T/C [7]: 90.3%
viability, T/C [8]: 95.3%
viability, T/C [9]: 84.9%
viability, T/C [10]: 83%
viability, T/C [11]: 93.2%
viability, T/C [12]: 67.5%
viability, T/C [13]: 86.4%
viability, T/C [14]: 107%
viability, T/C [15]: 79.7%
viability, T/C [16]: 83.3%
viability, T/C [17]: 79.8%
viability, T/C [18]: 70.4%
viability, T/C [19]: 80%
viability, T/C [20]: 79.3%
viability, T/C [21]: 78.3%
viability, T/C [22]: 77.4%
viability, T/C [23]: 74.5%
viability, T/C [24]: 67.5%
viability, T/C [25]: 87%
viability, T/C [26]: 92.3%
viability, T/C [27]: 86.5%
viability, T/C [28]: 85.7%
viability, T/C [29]: 85%
viability, T/C [30]: 80.6%
viability, T/C [31]: 81.8%
viability, T/C [32]: 83.6%
viability, T/C [33]: 87.4%
viability, T/C [34]: 79.5%
viability, T/C [35]: 83.6%
viability, T/C [36]: 79.9%
